In US20260265179A1, “PHOTOSWITCHABLE COMPOUNDS AND AFFINITY LIGANDS, AND THEIR USE FOR THE OPTICAL CONTROL OF AFFINITY MATRICES” (AFC Innovations GmbH, priority 2023, published 2026):

How the values were obtained:
[1] = Thermal cis to trans relaxation of PS4, HPLC; format: physicochemical; settings: 25° C., kept in the dark after yellow light (593 nm) for 2 min
[2] = Stability of photoswitch in presence of TCEP during derivatization reaction; format: physicochemical; settings: 1 mM TCEP, pH 8.5, 35° C., 16 h
Description: Freshly degassed and reduced SpA #2 (650 μM, 1.3 μmol, 10 mg, 1 eq) in a total volume of 2 ml was diluted with the same degassed buffer (100 mM sodium borate, 150 mM NaCl, 1 mM TCEP, pH 8.5) to a final protein concentration of 50 μM. This solution was stirred under nitrogen atmosphere while 2.2 mg PS2 (2.6 μmol, 2 eq) dissolved in 0.26 ml DMF, which has been illuminated with red light (635 nm) for 5 min, was added in one portion. The reaction was illuminated with red light and stirred for 16 h at 35° C. […] The derivatization reaction results in a […] amount of intramolecular cross-linked species. Further purification steps by anion exchange chromatography and SEC were performed to remove small amounts of cross-linked species and higher oligomers.

[3] = system: immunoglobulin G (IgG) mixture (Cutaquig); assay: Light-controlled affinity purification of IgG from polyclonal antibody mixture Cutaquig; format: binding; settings: sample application and washing under red light, elution under blue light; immobilized on NHS-Agarose
Description: For the functional assessment of the light-switchable affinity matrices, these were encased within a transparent acrylic glass housing, featuring a thickness of 2 mm, to achieve a settled bed volume (SBV) of 250 μl. A LED array equipped with lenses capable of alternating between peak wavelengths of 635 nm (red) and 465 nm (blue) was positioned adjacent to the housing. This configuration ensured thorough and efficient illumination of the entire resin material contained within. The performance of the light-switchable affinity matrix was tested using the polyclonal antibody mixture Cutaquig® (Octapharma) as a substrate.
Initially, the column was equilibrated with 3 mL of running buffer (50 mM TrisHCl, pH 7.6, 150 mM NaCl) using an FPLC system (AKTA Pure 25, Cytiva Life Science). The affinity matrix was then loaded with sample to achieve a 60% breakthrough. Unbound proteins and impurities were removed by washing the column with 7.5 mL of the same running buffer. Both, the sample application and washing steps were performed under red visible light illumination at 635 nm to ensure binding conditions. Following this, the elution of bound immunoglobulin G (IgG) was initiated by switching the illumination to blue visible light at 465 nm, which induces the release of the bound IgG. The resin was regenerated by again illuminating with red visible light at 635 nm, preparing it for subsequent use. […]

| Molecule | binding and light-controlled elution of IgG (chromatogram) [3] | further results |
| --- | --- | --- |
| O=C(O)CNC(=O)c1cc(-c2cc(F)c(/N=N/c3c(F)cc(-c4ccc(NC(=O)CCl)c(C(=O)NCC(=O)O)c4)cc3F)c(F)c2)ccc1NC(=O)CCl [PS4, 4′-(2-(4-(2-chloroacetamido)-3′,5′-difluorobiphenyl-3-ylcarboxyamido)acetic acid)-4′-(2-(4-(2-chloroacetamido)-3′,5′-difluorobiphenyl-3-ylcarboxyamido)acetic acid)diazene] | – | t1/2 (cis→trans) [1]: ≥ 24 h |
| COc1cc(-c2ccc(NC(=O)CCl)c(C(=O)NCC(=O)O)c2)cc(OC)c1/N=N/c1c(OC)cc(-c2ccc(NC(=O)CCl)c(C(=O)NCC(=O)O)c2)cc1OC [PS2, 4′-(2-(4-(2-chloroacetamido)-3′,5′-dimethoxybiphenyl-3-ylcarboxyamido)acetic acid)-4′-(2-(4-(2-chloroacetamido)-3′,5′-dimethoxybiphenyl-3-ylcarboxyamido)acetic acid)diazene] | – | stability in the presence of TCEP [2]: stable |
| Ps2-Ppl #1: Protein L variant PpL #1 (SEQ ID NO. 19) modified with photoswitch PS2 (conjugate, photoswitch PS2) MATKASKGGGGASEEVTIRVNLIFADGSTQCAEFRGTFEEATAEAYAYADLLARENGEYTACLEDGGNTINIRFAGEDEDEDED | elution of specifically bound IgG molecules is initiated by blue light illumination | – |
| Ps2-SpG #1: Protein G variant SpG #1 (SEQ ID NO. 18) modified with photoswitch PS2 (conjugate, photoswitch PS2) MATKASKGGGGTTYRLILNGVTLSGETTTEACDAATAERVFRQYANDYGVDGEWTYDCATRTFTVTEGEDEDEDED | elution of specifically bound IgG molecules is initiated by blue light illumination | – |
